Reference: PMC8989696, “Characterization of furathiocarb metabolism in in-vitro human liver microsomes and recombinant cytochrome P450 enzymes” (Toxicology Reports, 2022)
Marks after values point to notes of the source that are not given here.

Experiments:
Type in all cases: in vitro ADME
[1] = target: T1, CYP2B6 (Homo sapiens, UniProt P20813); test: in vitro; set-up: purchased BD Biosciences Discovery Labware (Bedford, MA); host or cells: baculovirus-infected insect cells; settings: pH 7.4, Carbofuran metabolic pathway, rCYP2B6
T1 sequence (P20813 1-491): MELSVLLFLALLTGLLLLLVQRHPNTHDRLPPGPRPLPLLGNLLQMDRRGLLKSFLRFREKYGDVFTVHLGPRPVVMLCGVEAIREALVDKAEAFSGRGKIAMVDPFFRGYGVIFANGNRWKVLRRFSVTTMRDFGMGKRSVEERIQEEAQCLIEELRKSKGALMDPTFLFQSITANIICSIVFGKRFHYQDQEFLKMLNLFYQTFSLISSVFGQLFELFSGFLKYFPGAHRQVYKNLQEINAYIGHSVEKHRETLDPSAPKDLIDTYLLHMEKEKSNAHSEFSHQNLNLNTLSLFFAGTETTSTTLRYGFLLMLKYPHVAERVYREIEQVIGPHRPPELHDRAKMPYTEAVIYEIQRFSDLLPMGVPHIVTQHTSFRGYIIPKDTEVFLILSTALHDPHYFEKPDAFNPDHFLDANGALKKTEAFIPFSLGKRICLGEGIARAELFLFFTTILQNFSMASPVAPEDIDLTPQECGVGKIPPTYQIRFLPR
Method: Furathiocarb was incubated with recombinant CYPs (rCYP). The incubation mixture contained rCYPs (50 pmol CYP per ml), 100 µM furathiocarb, and 1 mM NADPH in 200 µl 0.1 M phosphate buffer (pH 7.4). Incubation procedures and chromatographic separation are presented in Supplementary materials.
Enzyme kinetic parameters of both the microsomal samples and rCYP enzymes were measured. The incubation mixture contained furathiocarb (2.5, 10, 25, 50, 150 and 300 µM). Incubation times were 20 and 30 min for microsomal samples and rCYPs, respectively. Otherwise incubation mixtures and methods were the same as in metabolite identification. The rate of sum of furathiocarb metabolite formation was linear at least up to 0.15 mg protein/ml and 30 min incubation time in the standard experimental conditions.
To measure the main furathiocarb metabolites of recombinantly expressed CYP enzymes (rCYPs), the standard incubation mixture (200 µl) contained 0.1 M phosphate buffer (pH 7.4), 1 mM NADPH, 100 µM […], and rCYPs (50 pmol CYP per ml). Incubations were carried out according to the manufacturer’s instructions. Shortly, the reaction was started by adding recombinant enzymes to the preincubated eaction mixture (2 min at +37 ◦C), mixed gently and incubated for 30 min at +37 ◦C in an incubator block without agitation. […]

[2] = tested on: UDP-glucuronosyl transferase (UGT); test: Incubation with human hepatic homogenate fortified with UDP-glucuronic acid (phase II metabolites); settings: data not illustrated
[3] = Correlation of furathiocarb metabolite formation with model CYP substrate activities in ten human hepatic microsomes; settings: 20 min, n = 10; for Linear correlation coefficient, Carbofuran metabolic pathway: 50 μM furathiocarb
Method: A set of ten livers was used to assess the metabolism of furathiocarb in the individual livers as well as to correlate the activities with a model CYP substrate. (Detailed information is available as Supplementary materials).
The kinetic parameters Vmax and Km were calculated by nonlinear regression. Bivariate linear Pearson’s correlation coefﬁcients (r2) were calculated between metabolite formations and model activities in the livers. GraphPad Prism 9 Software (Inc., San Diego, CA) Prism 9.0.0 (San Diego, CA) was used for kinetic parameters and correlation coefﬁcients analysis. The IC50 values were determined by linear regression analysis using OriginPro 2020 (MicroCal Software, Inc., Northampton, MA.
Metabolites of bupropion, amodiaquine, tolbutamide, omeprazole, dextromethorphan, chlorzoxazone, and midazolam were analyzed by a Shimadzu VP series high-performance liquid chromatograph with an autoinjector (Shimadzu, Kyoto, Japan). The analytical column was a Waters Symmetry C18 (3.9 mm x 150 mm, particle size of 5 µm) together with a Lichospher 100 RP-18 4.0 mm x 4.0 mm precolumn (Merck, Darmstadt, Germany). Chromatographic methods were isocratic, except in the case of omeprazole when a linear gradient elution from 15 to 35% A in 8 min was used. Mobile phases were pumped at a flow rate of 1.0 ml/min. The injection volume used was 20 µl. The concentrations of metabolites were calculated from peak height ratios of the UV chromatograms on the basis of standard calibration curves of authentic metabolites. Metabolites of ethoxyresorufin, ethoxycoumarin, coumarin, and pentoxyresorufin were analyzed fluorometrically. […] Fresh […] dilutions from stock solution of DMSO were used for each assay. The final amount of DMSO was 1% in incubation mixtures. For chlorzoxazone 6-hydroxylation the solvent was evaporated because of the potent inhibition effect of DMSO on CYP2E1, and the residue was diluted with 10 µl of lipid solution. Lipid solution was prepared by adding 8 µl of dimethyldioctadecylammonium-bromide in chloroform (100 mg/ml) to 200 µl L-α-phosphatidylethanolamine dioleyl [C18:1 (cis)-9] in chloroform. This mixture was evaporated with a stream of nitrogen flow, 2 ml of water was added, and the final mixture was sonicated (Branson Sonifier 250 GWB) on an ice bath for 10 min by using 50% power.
Cytochrome P450 enzyme activity characterizations as well as incubations with individual human hepatic microsomes were performed at the same time. A bank of 10 livers was used to assess the metabolism of furathiocarb in individual livers as well as to correlate the activities with model P450 substrate activities. A correlation was performed between the formation of furathiocarb metabolites and each CYP activity across the human liver set. For all data points the mean of duplicate incubations were used. […] Bivariate linear Pearson’s correlation coefficients (r) were calculated between metabolite formations and model activities in livers. […]

## CCCCOC(=O)N(C)SN(C)C(=O)Oc1cccc2c1OC(C)(C)C2 [furathiocarb, Furathiocarb]
[1]
  Km at 30 min: 9.7 ± 3.9 µM
[2]
  Phase II metabolites: no phase II metabolites were detected
[3]; vs CYP1A1/2 7-Ethoxyresorufin-O-deethylation (EROD)
  Linear correlation coefficient, Carbofuran metabolic pathway: 0.2493
[3]; vs CYP2A6 Coumarin-7-hydroxylation (OH-COU)
  Linear correlation coefficient, Carbofuran metabolic pathway: 0.2303
[3]; vs CYP2A6 Coumarin-7-hydroxylation (OH-COU), 100 μM furathiocarb
  Linear correlation coefficient, -OH/SO4 furathiocarb Metabolite B: 0.1259
[3]; vs CYP2B6 Bupropion hydroxylation (OH-BUP)
  Linear correlation coefficient, Carbofuran metabolic pathway: 0.0023
[3]; vs CYP2C8 Amodiaquine-desethylation (deEt-AMO)
  Linear correlation coefficient, Carbofuran metabolic pathway: 0.1814
[3]; vs CYP2C9 Tolbutamide hydroxylation (OH-TOL)
  Linear correlation coefficient, Carbofuran metabolic pathway: 0.1126
[3]; vs CYP2C19 Omeprazole-5-hydroxylation (5-OH-OME), P < 0.0001
  Linear correlation coefficient, Carbofuran metabolic pathway: 0.9074 **
[3]; vs CYP2C19 Omeprazole-5-hydroxylation (5-OH-OME), 100 μM furathiocarb
  Linear correlation coefficient, -OH/SO4 furathiocarb Metabolite A: 0.4683
[3]; vs CYP2D6 Dextromethorphan-O-desmethylation (O-dem-DEX)
  Linear correlation coefficient, Carbofuran metabolic pathway: 0.0059
[3]; vs CYP2E1 Chlorzoxazone-6-hydroxylation (OH-CLZ)
  Linear correlation coefficient, Carbofuran metabolic pathway: 0.1101
[3]; vs CYP3A4 Midazolam-1'-hydroxylation (1-OH-MDZ), P = 0.0001
  Linear correlation coefficient, Carbofuran metabolic pathway: 0.8513 *
[3]; vs CYP3A4 Midazolam-1'-hydroxylation (1-OH-MDZ), 100 μM furathiocarb
  Linear correlation coefficient, -OH/SO4 furathiocarb Metabolite B: 0.3282
[3]; vs CYP3A4 Omeprazole sulfoxidation (SO2-OME), P < 0.0001
  Linear correlation coefficient, Carbofuran metabolic pathway: 0.9632 **
[3]; vs CYP3A4 Omeprazole sulfoxidation (SO2-OME), 100 μM furathiocarb
  Linear correlation coefficient, -OH/SO4 furathiocarb Metabolite B: 0.2793
